For data set [1], the system named is ACE. The note with it: cited from earlier work; for ACE-inhibitory activity in words: 30 (ADMIET, QTPHQ, ELHPQ), ref 27 (RTVFDGEL, RADVFNPR); for IC50: read-out: Inhibitory capacity on ACE (IC50). The source says:
The results of ultra-high-performance liquid chromatography and quantum-ultra mass spectrometric determination of BAAH-4-C are shown in Table 1 and Figure 4. Five oligopeptides, […]([…]), Lys-Thr-Glu-Thr-Gln-Pro (KTETQP), […]([…]), […]([…]), and Thr-Cys-Gly-Ala-Ser (TCGAS) were obtained. However, only […] offered potential antihypertension based on the vector machine software score (1.35) calculated by the database AHTpin [28]. […] As shown in the Lineweaver–Burk diagram of ACE, the Km increased with the increasing […] dose, but the maximum velocity (Vmax) decreased when the […] dose increased, which was the typical effect of noncompetitive inhibitors. Peptides such as […] an ... || To the best of our knowledge, this is the first study to simultaneously investigate the capacities of bitter almond albumin peptides to inhibit ACE and bind with zinc ions. Previous studies evidenced that thermolysin could quickly cleave the amide bonds linked with hydrophobic amino acid residues, with the released hydrophobic amino acid residues playing an important role in ACE inhibition; whereas papain cleaves multiple sites of polypeptide chains, especially peptide bonds linking with acidic amino acid residues (Glu and Asp), Arg, and aromatic amino acids which was helpful for the release o ... || (+ 2 further places)

Data set [2] can be described thus: Chelating ability toward zinc ions, 4-(β-Pyridinazo)-resorcinol method. The class given is physicochemical. The conditions noted are these: 0.75 mmol·L^−1 ZnSO4 in HEPES-KOH buffer, peptide solution 0.8 mg·mL^−1, 15 min, 25 °C; repeated three or more times. Here is the method:
(§1) In short, 0.75 mmol·L^−1 of ZnSO4 (dissolved in 0.2 mmol·L^−1 of HEPES-KOH buffer) and 10 mmol·L^−1 of 1,4-Dithiothreitol were added into a glass tube. The tube was incubated in the THZ-82AB thermostatic oscillator (195 r·min^−1 and 25 °C). Five minutes later, the zinc concentration in the glass tube was measured and read as C0. Next, the BAAH peptides aqueous solution (0.8 mg·mL^−1) was added and the mixture was continuously shaken for another 15 min. Then, the zinc concentration in the glass tube was measured and read as Ct. The chelating ability of BAAH peptides toward zinc ions was calculated as follows, and ethylenediamine tetraacetic acid (EDTA) was used as the positive control. (1) Chelating ability towards zinc ions (mg·g^−1) = (C0−Ct) × V/m where V and m represent the volume of the reaction solution (mL) and the mass weight of BAAH peptides (g), respectively.

The next data set deals with SHR. The conditions noted are these: cited from earlier work. From the text:
Zinc chelation may change the coordination of peptides toward ACE, resulting in lower ACE-inhibitory activity and antihypertension.

For data set [3], the target named is T1, ACE (Oryctolagus cuniculus, UniProt P12822).
T1 construct: purchased Sigma (St. Louis, MO, USA)
T1 sequence (P12822 34-1310): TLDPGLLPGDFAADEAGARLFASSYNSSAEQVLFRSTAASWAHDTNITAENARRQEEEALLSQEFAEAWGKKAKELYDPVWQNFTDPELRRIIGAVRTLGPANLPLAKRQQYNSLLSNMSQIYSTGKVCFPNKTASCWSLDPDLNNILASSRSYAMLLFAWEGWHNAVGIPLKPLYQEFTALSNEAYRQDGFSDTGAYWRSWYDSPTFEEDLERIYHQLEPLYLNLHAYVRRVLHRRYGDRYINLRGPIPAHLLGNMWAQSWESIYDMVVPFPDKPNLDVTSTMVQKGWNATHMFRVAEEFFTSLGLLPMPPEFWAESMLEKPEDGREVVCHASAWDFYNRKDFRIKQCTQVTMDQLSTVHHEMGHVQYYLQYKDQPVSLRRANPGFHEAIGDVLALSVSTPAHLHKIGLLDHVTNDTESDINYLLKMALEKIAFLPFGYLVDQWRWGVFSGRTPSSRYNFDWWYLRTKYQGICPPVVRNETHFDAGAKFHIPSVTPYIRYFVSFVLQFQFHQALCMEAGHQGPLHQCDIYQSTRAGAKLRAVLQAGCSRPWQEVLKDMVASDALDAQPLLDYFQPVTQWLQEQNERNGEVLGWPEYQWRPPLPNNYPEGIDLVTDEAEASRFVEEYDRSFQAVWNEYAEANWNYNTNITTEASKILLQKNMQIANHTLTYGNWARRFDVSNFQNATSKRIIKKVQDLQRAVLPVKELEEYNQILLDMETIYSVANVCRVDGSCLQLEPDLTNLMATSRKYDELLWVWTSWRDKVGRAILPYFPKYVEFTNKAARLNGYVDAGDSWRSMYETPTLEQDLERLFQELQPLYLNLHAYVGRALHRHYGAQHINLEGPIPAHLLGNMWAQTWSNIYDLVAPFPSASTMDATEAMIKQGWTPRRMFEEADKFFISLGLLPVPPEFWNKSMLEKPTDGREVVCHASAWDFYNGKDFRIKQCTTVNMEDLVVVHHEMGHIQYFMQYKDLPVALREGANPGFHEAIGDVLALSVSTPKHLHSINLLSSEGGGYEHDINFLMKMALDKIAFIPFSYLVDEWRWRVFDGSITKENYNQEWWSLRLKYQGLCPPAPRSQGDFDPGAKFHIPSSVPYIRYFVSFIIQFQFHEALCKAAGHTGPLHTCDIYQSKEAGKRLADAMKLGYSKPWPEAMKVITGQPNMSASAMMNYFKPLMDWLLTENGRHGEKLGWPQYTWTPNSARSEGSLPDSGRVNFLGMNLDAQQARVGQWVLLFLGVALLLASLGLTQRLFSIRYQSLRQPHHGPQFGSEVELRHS
Nature of the data set: ACE inhibition, N-hippuryl-L-histidyl-L-leucine method. It counts as biochemical. The conditions noted are these: synthesized peptide; HHL 5 mmol·L^−1, boric acid buffer pH 8.3, 37 °C, 10 min pre-incubation, 1 h reaction, absorbance at 228 nm; read-out: Inhibitory effect against ACE (IC50).
Method: The N-hippuryl-L-histidyl-L-leucine method was utilized for the determination of the inhibiting capacity of BAAH peptides toward ACE [30]. In a glass test tube, 0.2 mL of ACE solution (dissolved in boric acid buffer, pH 8.3) and 0.2 mL of BAAH peptide aqueous solution (1 mg·mL^−1) were added. The mixture in the glass tube was shaken in a water bath at 143 r·min^−1 and 37 °C. Ten minutes later, 0.65 mL of N-hippuryl-L-histidyl-L-leucine (5 mmol·L^−1, dissolved in boric acid buffer, pH 8.3) was added. After continuously shaking for 1 h, 0.75 mL of dilute hydrochloric acid was added into the tube. Next, hippuric acid produced in the reaction solution was extracted by ethyl acetate (1.25 mL). The hippuric acid solution (the supernatant) was sucked out with a pipette (DG-1, Dragon TopPette, Beijing, China) and heated at 70 °C to evaporate the ethyl acetate. The residual hippuric acid was resolved in distilled water, and its absorbance at 228 nm was read. The inhibition capacity of BAAH peptides against ACE was the percentage of the absorbance reduction value at 228 nm to the absorbance of the control group (without BAAH peptide). The concentration of BAAH peptides was defined as IC50 when the activity of ACE was inhibited by half.

Data set [4] deals with ACE. Briefly: ACE inhibition after simulated gastrointestinal digestion (pepsin, then pancreatin). The class given is in vitro ADME. The note with it: pepsin pH 2.00, 90 min, then pancreatin pH 7.00, 150 min, 37 °C; p > 0.5 as printed. Here is the method: The N-hippuryl-L-histidyl-L-leucine method was utilized for the determination of the inhibiting capacity of BAAH peptides toward ACE [30]. In a glass test tube, 0.2 mL of ACE solution (dissolved in boric acid buffer, pH 8.3) and 0.2 mL of BAAH peptide aqueous solution (1 mg·mL^−1) were added. The mixture in the glass tube was shaken in a water bath at 143 r·min^−1 and 37 °C. Ten minutes later, 0.65 mL of N-hippuryl-L-histidyl-L-leucine (5 mmol·L^−1, dissolved in boric acid buffer, pH 8.3) was added. After continuously shaking for 1 h, 0.75 mL of dilute hydrochloric acid was added into the tube. Next, hippuric acid produced in the reaction solution was extracted by ethyl acetate (1.25 mL). The hippuric acid solution (the supernatant) was sucked out with a pipette (DG-1, Dragon TopPette, Beijing, China) and heated at 70 °C to evaporate the ethyl acetate. The residual hippuric acid was resolved in distilled water, and its absorbance at 228 nm was read. The inhibition capacity of BAAH peptides against ACE was the percentage of the absorbance reduction value at 228 nm to the absorbance of the control group (without BAAH peptide). The concentration of BAAH peptides was defined as IC50 when the activity of ACE was inhibited by half. Captopril was used as the positive control. […]

Data set [5] in a line: Zinc-chelating ability after simulated gastrointestinal digestion (pepsin, then pancreatin). The class given is in vitro ADME. The conditions noted are these: 5 mg/mL peptide; pepsin pH 2.00, 90 min, then pancreatin pH 7.00, 150 min, 37 °C; then 4-(β-Pyridinazo)-resorcinol method. Here is the method:
as §1
In a stirring (115 r·min^−1) water bath at 37 °C, the BAAH peptides’ aqueous solution (5 mg/mL, 10 mL) was added into a glass test tube, and the pH value was adjusted to 2.00 ± 0.05 with dilute hydrochloric acid solution (0.5 mol·L^−1). […] Afterward, both the chelating ability toward zinc ion, and the inhibition activity of BAAH peptides against ACE were determined using the 4-(β-Pyridinazo)-resorcinol method and N-hippuryl-L-histidyl-L-leucine method, respectively. […]

Ends that are not written are not given here.

For the substance “HLNVVHEN [peptide identified from walnut protein]”, in the data set with ACE [1], the ACE inhibitory pattern entry is “noncompetitive”.
QPPAAAAAAGAG: the “Chelating ability toward zinc ions” value in data set [2] is 1.14 ± 0.01 g mg·g^−1.
As for “QTPHQ [peptide derived from canary seeds]”, the “ACE-inhibitory activity in words” value in the data set on ACE [1] is given as “high ACE-inhibitory activities”.
A word on the IC50: it is the point on the concentration scale where inhibition reaches its midpoint. As to “FMRWRDRFL [peptide isolated from tombul hazelnut]”, the IC50 in the data set on ACE [1] is 260 µM.
Take “ELHPQ [peptide derived from canary seeds]”: the “ACE-inhibitory activity in words” value in the data set with ACE [1] is given as “high ACE-inhibitory activities”.
Take LYSPLLKYFD [peptide from rice bran]: in the data set with SHR, the “Antihypertensive effects on SHR” value is reported as “dose-dependent antihypertensive effects” and the “Effect of the addition of zinc ions on antihypertension” value (“Effect of the addition of zinc ions” below) is on record as “reduce”.
For “RTVFDGEL [peptide derived from palm kernel glutelin-1]”, in the data set with ACE [1], the “ACE-inhibitory activity in words” value is reported as “excellent ability to restrain ACE”.
For the substance “PGSGCAGTDL [called Mung bean-derived in b48]”, in the data set on ACE [1], the ACE inhibitory pattern entry was “noncompetitive”. In the data set with SHR, the “Antihypertensive effects on SHR” value is reported as “dose-dependent antihypertensive effects” and the “Effect of the addition of zinc ions” value is “reduce”.
For RPPSEDEDQE, at ACE [3], the 50% inhibitory concentration (IC50) is 206 µM. Also, in the data set with ACE [4], the “Zinc-chelating ability and ACE-inhibitory capacity after hydrolysis of gastrointestinal proteases, versus untreated peptide” value was “not significantly reduced”. Further, the “Chelating ability toward zinc ions after gastrointestinal digestion” value in data set [5] was 18.55 ± 0.95 mg/g.
In the case of “LVRYYLLVR [peptide from hazelnut protein]”, the ACE inhibitory pattern entry in the data set on ACE [1] is recorded as “noncompetitive”.
Regarding “ADMIET [peptide identified in Lepidium meyenii]”, the “ACE-inhibitory activity in words” value with ACE [1] is “high ACE-inhibitory activities”.
Turning to KYPHVF [symbiotic peptide], the “ACE inhibition ability after zinc chelation” value in the data set on ACE [1] was “not significantly reduced”.
As for KTETQP [KTETQP], the “Chelating ability toward zinc ions” value in data set [2] turned out to be 19.30 ± 1.46 e mg·g^−1.
For the substance “RADVFNPR [peptide derived from palm kernel glutelin-1]”, the “ACE-inhibitory activity in words” value in the data set with ACE [1] was “excellent ability to restrain ACE”.
As for GYGYNY [camellia peptide], in the data set on SHR, the “Antihypertensive effects on SHR” value was “dose-dependent antihypertensive effects” and the “Effect of the addition of zinc ions” value is “reduce”.
With “EKTFLLYSCPHR [peptide identified from camel milk]”, the half-inhibitory concentration (IC50) in the data set with ACE [1] is 312 µM.

The values above are taken from PMC10458118, “Bitter Almond Albumin ACE-Inhibitory Peptides: Purification, Screening, and Characterization In Silico, Action Mechanisms, Antihypertensive Effect In Vivo, and Stability” (Molecules, 2023).
